Here are results for nine molecules from ChEMBL document CHEMBL1143615, “Synthesis and structure-activity relationship of fluoro analogues of 8-{2-[4-(4-methoxyphenyl)piperazin-1yl]ethyl}-8-azaspiro[4.5]decane-7,9-dione as selective alpha(1d)-adrenergic receptor antagonists” (J Med Chem, 2005).

Assay [1] has as its target D(2) dopamine receptor (Homo sapiens, UniProt P14416). Nature of the assay: Binding affinity for human Dopamine receptor D2.
Assay [2] addresses D(3) dopamine receptor (Rattus norvegicus, UniProt P19020). Nature of the assay: Binding affinity for rat Dopamine receptor D3.
For assay [3], the target named is T1, Alpha-1B adrenergic receptor (Homo sapiens, UniProt P35368).
T1 sequence (P35368 whole entry): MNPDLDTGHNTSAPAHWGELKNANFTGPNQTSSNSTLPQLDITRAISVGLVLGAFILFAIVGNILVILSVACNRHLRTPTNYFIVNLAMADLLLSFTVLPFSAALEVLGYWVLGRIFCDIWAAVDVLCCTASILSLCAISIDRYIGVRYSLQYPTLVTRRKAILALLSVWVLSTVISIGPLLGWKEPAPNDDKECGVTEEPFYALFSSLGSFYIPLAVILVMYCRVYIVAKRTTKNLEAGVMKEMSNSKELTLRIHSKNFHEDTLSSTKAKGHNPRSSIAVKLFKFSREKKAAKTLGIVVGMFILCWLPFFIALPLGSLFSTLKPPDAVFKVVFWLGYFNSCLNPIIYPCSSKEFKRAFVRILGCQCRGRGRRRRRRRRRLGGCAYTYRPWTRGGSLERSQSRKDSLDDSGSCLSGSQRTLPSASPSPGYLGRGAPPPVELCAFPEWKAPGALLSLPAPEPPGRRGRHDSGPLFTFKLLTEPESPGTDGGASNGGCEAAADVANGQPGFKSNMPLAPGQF
Nature of the assay: Binding affinity for human Alpha-1B adrenergic receptor.

Assay [4] has as its target T2, Alpha-1A adrenergic receptor (Homo sapiens, UniProt P35348).
T2 sequence (P35348 whole entry): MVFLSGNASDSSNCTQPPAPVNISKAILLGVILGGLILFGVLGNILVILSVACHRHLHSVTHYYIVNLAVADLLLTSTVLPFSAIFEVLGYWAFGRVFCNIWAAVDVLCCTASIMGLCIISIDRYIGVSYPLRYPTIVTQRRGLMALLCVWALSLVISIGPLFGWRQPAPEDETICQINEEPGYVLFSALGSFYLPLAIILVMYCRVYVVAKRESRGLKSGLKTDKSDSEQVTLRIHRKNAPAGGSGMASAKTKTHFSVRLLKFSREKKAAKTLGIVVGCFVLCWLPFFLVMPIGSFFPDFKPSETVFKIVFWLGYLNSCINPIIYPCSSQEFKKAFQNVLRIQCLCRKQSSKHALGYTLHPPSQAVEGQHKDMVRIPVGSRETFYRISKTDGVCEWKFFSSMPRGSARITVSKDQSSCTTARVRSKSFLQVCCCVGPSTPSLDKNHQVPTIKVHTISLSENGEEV
Nature of the assay: Binding affinity for human Alpha-1A adrenergic receptor.

Assay [5] addresses T3, 5-hydroxytryptamine receptor 1A (Homo sapiens, UniProt P08908).
T3 sequence (P08908 whole entry): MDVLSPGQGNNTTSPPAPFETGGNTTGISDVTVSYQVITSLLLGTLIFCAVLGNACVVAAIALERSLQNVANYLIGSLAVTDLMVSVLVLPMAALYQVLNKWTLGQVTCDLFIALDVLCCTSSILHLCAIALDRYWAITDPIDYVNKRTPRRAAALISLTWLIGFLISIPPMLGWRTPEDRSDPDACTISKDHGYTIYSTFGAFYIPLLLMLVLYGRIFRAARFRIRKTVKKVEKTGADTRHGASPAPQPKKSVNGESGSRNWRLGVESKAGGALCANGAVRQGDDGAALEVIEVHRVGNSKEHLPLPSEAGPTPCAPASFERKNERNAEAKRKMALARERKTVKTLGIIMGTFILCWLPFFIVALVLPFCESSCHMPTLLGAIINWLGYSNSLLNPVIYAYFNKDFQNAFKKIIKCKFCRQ
Description: Binding affinity for human 5-hydroxytryptamine 1A receptor

In assay [6] the target is T4, Alpha-1D adrenergic receptor (Homo sapiens, UniProt P25100).
T4 sequence (P25100 whole entry): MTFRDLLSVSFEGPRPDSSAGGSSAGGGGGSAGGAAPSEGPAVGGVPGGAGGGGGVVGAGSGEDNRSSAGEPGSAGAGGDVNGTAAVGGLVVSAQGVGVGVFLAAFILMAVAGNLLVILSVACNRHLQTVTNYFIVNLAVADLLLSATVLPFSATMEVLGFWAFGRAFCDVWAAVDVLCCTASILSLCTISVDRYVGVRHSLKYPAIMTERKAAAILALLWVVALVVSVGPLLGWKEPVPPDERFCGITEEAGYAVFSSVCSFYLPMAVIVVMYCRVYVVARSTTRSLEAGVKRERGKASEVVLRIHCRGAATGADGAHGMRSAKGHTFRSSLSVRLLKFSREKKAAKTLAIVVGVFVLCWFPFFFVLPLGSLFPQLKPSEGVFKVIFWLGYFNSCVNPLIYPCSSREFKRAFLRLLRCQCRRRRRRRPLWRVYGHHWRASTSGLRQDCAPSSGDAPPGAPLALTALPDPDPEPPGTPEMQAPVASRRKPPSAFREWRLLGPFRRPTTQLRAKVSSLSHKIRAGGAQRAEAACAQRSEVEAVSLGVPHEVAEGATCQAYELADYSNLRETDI
Nature of the assay: Binding affinity for human Alpha-1D adrenergic receptor.

Sequence of D(2) dopamine receptor (P14416 whole entry): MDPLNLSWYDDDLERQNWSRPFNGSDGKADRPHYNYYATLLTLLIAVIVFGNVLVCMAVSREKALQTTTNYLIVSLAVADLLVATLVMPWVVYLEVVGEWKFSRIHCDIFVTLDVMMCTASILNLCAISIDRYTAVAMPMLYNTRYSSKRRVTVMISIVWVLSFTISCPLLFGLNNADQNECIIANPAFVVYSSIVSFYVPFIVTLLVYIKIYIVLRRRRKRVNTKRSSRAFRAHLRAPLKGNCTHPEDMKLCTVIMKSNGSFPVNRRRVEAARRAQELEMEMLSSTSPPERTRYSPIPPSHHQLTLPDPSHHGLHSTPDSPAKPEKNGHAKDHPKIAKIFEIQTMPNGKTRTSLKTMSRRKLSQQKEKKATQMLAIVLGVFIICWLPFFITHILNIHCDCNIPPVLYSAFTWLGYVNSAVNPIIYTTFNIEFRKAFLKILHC
Sequence of D(3) dopamine receptor (P19020 whole entry): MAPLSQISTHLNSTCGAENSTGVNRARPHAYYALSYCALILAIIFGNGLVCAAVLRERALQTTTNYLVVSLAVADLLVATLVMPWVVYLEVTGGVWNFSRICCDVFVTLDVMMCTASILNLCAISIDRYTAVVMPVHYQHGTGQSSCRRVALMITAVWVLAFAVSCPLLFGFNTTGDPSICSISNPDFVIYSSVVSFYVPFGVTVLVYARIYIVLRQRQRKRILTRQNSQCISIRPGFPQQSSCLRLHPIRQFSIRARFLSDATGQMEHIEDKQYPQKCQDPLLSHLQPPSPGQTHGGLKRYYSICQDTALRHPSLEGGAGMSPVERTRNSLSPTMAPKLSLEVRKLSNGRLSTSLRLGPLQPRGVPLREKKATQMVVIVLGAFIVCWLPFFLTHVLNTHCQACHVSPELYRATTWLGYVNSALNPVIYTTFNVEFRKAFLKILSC

Turning to `O=C1CC2(CCCC2)CC(=O)N1CCN1CCN(c2ccc(F)c(F)c2)CC1`, the inhibition constant (Ki) – broadly, a dissociation constant, usually derived from enzyme kinetics or from competition with a known ligand – in assay [1] is 2200 nM; in assay [2], 160 nM; in assay [3] it was 1400 nM; in assay [4], 4100 nM; in assay [5] it was 55 nM.
Take `O=C1CC2(CCCC2)CC(=O)N1CCN1CCN(c2cc(F)c(F)cc2F)CC1`: the inhibition constant (Ki) is 700 nM in assay [1]; 23 nM in assay [2]; 380 nM in assay [3]; 1.9 nM in assay [6]; 4400 nM in assay [4]; 360 nM in assay [5].
`C[C@@H](CN1CCN(c2cc(F)c(F)cc2F)CC1)N1C(=O)CC2(CCCC2)CC1=O` registered a Ki in assay [6] of 124 nM.
On to `O=C1CC2(CCCC2)CC(=O)N1CCN1CCN(c2ccccc2F)CC1`, for which the Ki in assay [1] was 140 nM; in assay [2] it was 5.2 nM; in assay [3] it was 67 nM.
As for `O=C1CC2(CCCC2)CC(=O)N1CCN1CCN(c2ccc(F)cc2F)CC1`, the Ki is 1100 nM in assay [3], 5.6 nM in assay [6], 3800 nM in assay [4] and 24 nM in assay [5].
Consider `O=C1CC2(CCCC2)CC(=O)N1CCN1CCN(c2cc(F)ccc2F)CC1`, for which the Ki came to 120 nM in assay [1], 8.1 nM in assay [2], 54 nM in assay [3] and 0.95 nM in assay [6].
As to `O=C1CC2(CCCC2)CC(=O)N1CCN1CCN(c2ccc(F)cc2)CC1`, the inhibition constant Ki amounted to 2200 nM in assay [1]; 91 nM in assay [2]; 255 nM in assay [3]; 14 nM in assay [6]; 620 nM in assay [4]; 54 nM in assay [5].
With `C[C@H](CN1CCN(c2cc(F)c(F)cc2F)CC1)N1C(=O)CC2(CCCC2)CC1=O`, the Ki in assay [1] was 580 nM; in assay [2] it was 120 nM; in assay [4], 14000 nM.
In the case of `COc1ccccc1N1CCN(CCN2C(=O)CC3(CCCC3)CC2=O)CC1` [BMY-7378], the Ki in assay [1] worked out at 14 nM; in assay [2] it was 3.1 nM; in assay [5], 0.46 nM.
